Laboratory results from ChEMBL document CHEMBL4177730, “Rational modification of semaxanib and sunitinib for developing a tumor growth inhibitor targeting ATP binding site of tyrosine kinase” (2018).
The source made the active and inactive calls.

Key:
Format in all cases: functional, cell-based
KM12 = assay: Growth inhibition of human KM12 cells at 10 uM after 48 hrs by sulforhodamine B assay
HCT-116 = assay: Growth inhibition of human HCT116 cells at 10 uM after 48 hrs by sulforhodamine B assay
ACHN = assay: Growth inhibition of human ACHN cells at 10 uM after 48 hrs by sulforhodamine B assay
LOX IMVI = assay: Growth inhibition of human LOXIMVI cells at 10 uM after 48 hrs by sulforhodamine B assay
SR = assay: Growth inhibition of human SR cells at 10 uM after 48 hrs by sulforhodamine B assay
EKVX = assay: Growth inhibition of human EKVX cells at 10 uM after 48 hrs by sulforhodamine B assay
TK-10 = assay: Growth inhibition of human TK10 cells at 10 uM after 48 hrs by sulforhodamine B assay
A549 = assay: Growth inhibition of human A549/ATCC cells at 10 uM after 48 hrs by sulforhodamine B assay
COLO 205 = assay: Growth inhibition of human COLO205 cells at 10 uM after 48 hrs by sulforhodamine B assay
OVCAR-5 = assay: Growth inhibition of human OVCAR5 cells at 10 uM after 48 hrs by sulforhodamine B assay
HCT-15 = assay: Growth inhibition of human HCT15 cells at 10 uM after 48 hrs by sulforhodamine B assay
MDA-MB-231 = assay: Growth inhibition of human MDA-MB-231 cells at 10 uM after 48 hrs by sulforhodamine B assay
NCI-H226 = assay: Growth inhibition of human NCI-H226 cells at 10 uM after 48 hrs by sulforhodamine B assay
SNB-75 = assay: Growth inhibition of human SNB75 cells at 10 uM after 48 hrs by sulforhodamine B assay
A498 = assay: Growth inhibition of human A498 cells at 10 uM after 48 hrs by sulforhodamine B assay
MDA-MB-435 = assay: Growth inhibition of human MDA-MB-435 cells at 10 uM after 48 hrs by sulforhodamine B assay
SK-OV-3 = assay: Growth inhibition of human SKOV3 cells at 10 uM after 48 hrs by sulforhodamine B assay
T47D = assay: Growth inhibition of human T47D cells at 10 uM after 48 hrs by sulforhodamine B assay
SF-539 = assay: Growth inhibition of human SF539 cells at 10 uM after 48 hrs by sulforhodamine B assay
MOLT-4 = assay: Growth inhibition of human MOLT4 cells at 10 uM after 48 hrs by sulforhodamine B assay
RXF 393 = assay: Growth inhibition of human RXF393 cells at 10 uM after 48 hrs by sulforhodamine B assay
Hs-578T = assay: Growth inhibition of human Hs 578T cells at 10 uM after 48 hrs by sulforhodamine B assay
Malme-3M = assay: Growth inhibition of human MALME-3M cells at 10 uM after 48 hrs by sulforhodamine B assay
HL-60(TB) = assay: Growth inhibition of human HL-60(TB) cells at 10 uM after 48 hrs by sulforhodamine B assay
UO-31 = assay: Growth inhibition of human UO31 cells at 10 uM after 48 hrs by sulforhodamine B assay
SN12C = assay: Growth inhibition of human SN12C cells at 10 uM after 48 hrs by sulforhodamine B assay
786-0 = assay: Growth inhibition of human 786-0 cells at 10 uM after 48 hrs by sulforhodamine B assay
CAKI-1 = assay: Growth inhibition of human CAKI-1 cells at 10 uM after 48 hrs by sulforhodamine B assay
OVCAR-8 = assay: Growth inhibition of human OVCAR8 cells at 10 uM after 48 hrs by sulforhodamine B assay
NCI-H23 = assay: Growth inhibition of human NCI-H23 cells at 10 uM after 48 hrs by sulforhodamine B assay
BT-549 = assay: Growth inhibition of human BT549 cells at 10 uM after 48 hrs by sulforhodamine B assay
SK-MEL-5 = assay: Growth inhibition of human SK-MEL-5 cells at 10 uM after 48 hrs by sulforhodamine B assay
SW-620 = assay: Growth inhibition of human SW620 cells at 10 uM after 48 hrs by sulforhodamine B assay
K562 = assay: Growth inhibition of human K562 cells at 10 uM after 48 hrs by sulforhodamine B assay
SK-MEL-2 = assay: Growth inhibition of human SK-MEL-2 cells at 10 uM after 48 hrs by sulforhodamine B assay
SF-295 = assay: Growth inhibition of human SF295 cells at 10 uM after 48 hrs by sulforhodamine B assay
CCRF-CEM = assay: Growth inhibition of human CCRF-CEM cells at 10 uM after 48 hrs by sulforhodamine B assay
RPMI-8226 = assay: Growth inhibition of human RPMI8226 cells at 10 uM after 48 hrs by sulforhodamine B assay
UACC-62 = assay: Growth inhibition of human UACC62 cells at 10 uM after 48 hrs by sulforhodamine B assay
MDA-MB-468 = assay: Growth inhibition of human MDA-MB-468 cells at 10 uM after 48 hrs by sulforhodamine B assay
NCI/ADR-RES = assay: Growth inhibition of human NCI-ADR-RES cells at 10 uM after 48 hrs by sulforhodamine B assay
SNB-19 = assay: Growth inhibition of human SNB19 cells at 10 uM after 48 hrs by sulforhodamine B assay
SK-MEL-28 = assay: Growth inhibition of human SK-MEL-28 cells at 10 uM after 48 hrs by sulforhodamine B assay
IGROV-1 = assay: Growth inhibition of human IGROV1 cells at 10 uM after 48 hrs by sulforhodamine B assay
SF-268 = assay: Growth inhibition of human SF268 cells at 10 uM after 48 hrs by sulforhodamine B assay
U-251 = assay: Growth inhibition of human U251 cells at 10 uM after 48 hrs by sulforhodamine B assay
NCI-H522 = assay: Growth inhibition of human NCI-H522 cells at 10 uM after 48 hrs by sulforhodamine B assay
M14 = assay: Growth inhibition of human M14 cells at 10 uM after 48 hrs by sulforhodamine B assay
OVCAR-4 = assay: Growth inhibition of human OVCAR4 cells at 10 uM after 48 hrs by sulforhodamine B assay
HOP-92 = assay: Growth inhibition of human HOP92 cells at 10 uM after 48 hrs by sulforhodamine B assay
PC-3 = assay: Growth inhibition of human PC3 cells at 10 uM after 48 hrs by sulforhodamine B assay
NCI-H322M = assay: Growth inhibition of human NCI-H322M cells at 10 uM after 48 hrs by sulforhodamine B assay
HCC 2998 = assay: Growth inhibition of human HCC2998 cells at 10 uM after 48 hrs by sulforhodamine B assay
MCF7 = assay: Growth inhibition of human MCF7 cells at 10 uM after 48 hrs by sulforhodamine B assay
NCI-H460 = assay: Growth inhibition of human NCI-H460 cells at 10 uM after 48 hrs by sulforhodamine B assay
DU-145 = assay: Growth inhibition of human DU145 cells at 10 uM after 48 hrs by sulforhodamine B assay
HOP-62 = assay: Growth inhibition of human HOP62 cells at 10 uM after 48 hrs by sulforhodamine B assay
OVCAR-3 = assay: Growth inhibition of human OVCAR3 cells at 10 uM after 48 hrs by sulforhodamine B assay
HT-29 = assay: Growth inhibition of human HT-29 cells at 10 uM after 48 hrs by sulforhodamine B assay

Measured: growth inhibition (GI)

O=C1/C(=C\c2cccn2C(=O)c2ccc(Cl)cc2)c2ccccc2N1c1c(Cl)cccc1Cl
inactive: all assays above

O=C1/C(=C\c2cccn2C(=O)c2ccc(Cl)s2)c2ccccc2N1c1c(Cl)cccc1Cl
inactive: all assays above
